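Following 48 hours of exposure in 96-well plates, responses at five concentrations were used to interpolate endpoints linearly. GI50: concentration for 50% inhibition of growth. TGI: total growth inhibition.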
Columns and labels:
Test in all cases: growth of human tumour cells (NCI), 48 h
[1] = test system: SK-OV-3 ovarian
[2] = test system: A498 renal
[3] = test system: SR leukemia
[4] = test system: UACC-257 melanoma
[5] = test system: UACC-62 melanoma
[6] = test system: HL-60(TB) leukemia
[7] = test system: HS 578T breast
[8] = test system: HCC-2998 colon
[9] = test system: OVCAR-3 ovarian
[10] = test system: T-47D breast

SMILES	GI50 [1] [µM]	TGI [1] [µM]	GI50 [2] [µM]	TGI [2] [µM]	GI50 [3] [µM]	TGI [3] [µM]	GI50 [4] [µM]	TGI [4] [µM]	GI50 [5] [µM]	TGI [5] [µM]	GI50 [6] [µM]	TGI [6] [µM]	GI50 [7] [µM]	TGI [7] [µM]	GI50 [8] [µM]	TGI [8] [µM]	GI50 [9] [µM]	TGI [9] [µM]	GI50 [10] [µM]	TGI [10] [µM]
O=c1cccc(C#CC#CCCCO)o1	18.5	45.4	23.7	40.5	0.158	2.37	3.48	15.8	4.42	10.5	2.24	5.39	9.68	25.5	2.58	7.38	1.93	4.94	3.64	27.3
C=CCCCOC1[C@H](OCc2ccccc2)C(OCc2ccccc2)C(OC)O[C@@H]1CNC(=O)c1cccc(I)c1 (stereo not given in full)	5.45	> 100	7.2	72.8	2.9	14.6	8.82	> 100	3.8	> 100	2.83	21.3	9.32	> 100	> 100	> 100	6.46	> 100	4.74	> 100
O=[N+]([O-])c1ccc2c(Nc3ccccc3-c3ccccc3Nc3c4ccccc4nc4cc([N+](=O)[O-])ccc34)c3ccccc3nc2c1		> 56.2		52.3		15.4		49.8		11.5		15.1		14.9		16.6		29.1		20.3
O=C(NN1C(=O)CSC1c1ccc(F)cc1)C(O)c1ccccc1 (stereo not given)	> 100	> 100	> 100	> 100	60.8	> 100	> 100	> 100	80.2	> 100	91.5	> 100	> 100	> 100	> 100	> 100	79.5	> 100	59.5	> 100
O=C(O)COc1ccc(C(=O)/C(SS/C(C(=O)c2ccc(OCC(=O)O)c(Cl)c2Cl)=C2\C=C(c3ccc(Br)cc3)SS2)=C2/C=C(c3ccc(Br)cc3)SS2)c(Cl)c1Cl		> 89.5		> 91.7		8.59		> 67.4		19.3		4.67		17.4		> 42.8		21.7		8.61
COc1cccc(CC(C)=C(c2ccc(OCCCN(C)C)cc2)c2ccc(OCCCN(C)C)cc2)c1	4.04	7.57	3.19	6.37	0.44	1.21	0.498	1.09	0.457	0.835	0.506	1.02	0.527	1.34	0.446	0.906	0.545	1.2	0.437	0.884
C=C1CC[C@@H]2[C@](C)(COC(C)=O)[C@H](OC(C)=O)CC[C@@]2(C)[C@@H]1CC(Nc1ccc(S(=O)(=O)Nc2nccs2)cc1)C1=CCOC1=O (stereo not given in full)	14.4	27.8	18.2	32.6	1.33	> 100	2.55	5.61	1.76	4.42	3.01	13.3	10.8	60.4	7.78	21.3	1.88	3.64	3.39	20.8
COc1ccc(Oc2ccccc2NC(=O)CNC(=O)c2cccc3ccccc23)cc1	1.02	> 25	0.564	10.4	0.166	> 25	> 25	> 25	0.559	> 25	0.613	1.71	1.71	> 25	1.41	> 25	0.387	> 25	2.52	19.6
COc1cc(/C=C/[N+](=O)[O-])cc(OC)c1OC	4.79	16.1	3.31	14.6	3.36	12.5	2.46	9.83	1.72	3.49	4.95	55.9	3.46	28.1	1.82	3.31	2.81	6.63	2	9.6
